Laboratory results reported in patent US20110021471A1, “REDUCING Abeta42 LEVELS AND Abeta AGGREGATION” (priority 2007, published 2011).

Experiments:
Tg2576 mice = test: Acute oral dosing of Tg2576 mice, brain soluble Aβ after 4 hours; assay type: in vivo, mouse
Procedure: FIG. 2. Aβ modulating agents can inhibit Aβ aggregation, and agents that bind Aβ amyloid can modulate Aβ42 production. […] (C) Aβ42 modulating agents inhibit naturally secreted oligomer formation. 7PA2 cells were treated with fenofibrate, FT-1, or FT-9 at 50 μM and oligomers assessed by IP Western blotting. […] (D) FT-9, an Aβ42 reducing agent, can inhibit Aβ42 aggregation in vitro.
FIG. 13. Compounds that bind Aβ are GSMs in vitro and in vivo. (A) A cell-based screen of Aβ-binders identified molecules that increase Aβ42 (DAPH) or decrease Aβ42 (Bis-ANS, X-34 or chrysamine G (CG)). Data are mean±s.e.m., n=3. (B) X-34 is an Aβ42-lowering GSM. Changes in amyloid-β peptide amounts after X-34 treatment are shown. Data are presented as percentage control±s.e.m., n=3. EC50 values were calculated. […] NA, not applicable. (C) X-34 binds to APP(C100)-Flag and decreases labeling by GSM photoprobes. Biotin incorporation into APP by Fen-B and Flurbi-BpB is presented as percentage of control (peptide without X-34)±s.e.m., n=2. (D) X-34 lowers Aβ42 in Tg2576 mice after 4 h. […] Data are presented as amyloid-β percentage of control relative to vehicle±s.e.m. Animals per group (n). Asterisk, P,0.05; two asterisks, P,0.01; ANOVA with Dunnett's post-hoc analysis.
(§1) Finally, X-34 was tested for its ability to modulate Aβ42 amounts in an APP transgenic mouse (Tg2576).

H4 APPwt cells = test: Immunoprecipitation-mass spectrometry of media from H4 APPwt cells; assay type: cell-based, human
Procedure: FIG. 14. Amyloid binding compounds alter the cleavage of Aβ similar to other established γ-secretase modulators Immunoprecipitation-mass spectrometry studies were conducted on media from H4 APPwt cells grown in the presence of test compounds for 16 hours. Conditions were: control (DMSO, 0.5%), sulindac sulfide (SS; 25 μM), chrysamine g (CG; 25 μM), and X-34 (25 μM). SS was included as a control GSM known to reduce Aβ42 and increase Aβ38. Spectra shown are representative of two experiments with 2-3 replicates each. Identified Aβ peptides based on calculated mass (m/z) are indicated above the peaks.

Aβ(1-42) = Aβ(1-42) (Homo sapiens, UniProt P05067); test: Fluorescence titration and saturation binding of Aβ(1-42) with X-34
Procedure: Fluorescence titration and saturation binding of Aβ(1-42) with X-34. Incremental increases in fluorescence (ΔF) when Aβ(1-42) was included at the indicated total concentrations of X-34 were fitted to eq. 1.
as §1

APP-CTF = molecular target: T1, APP-CTF (Homo sapiens, UniProt P05067); test: Photoaffinity labelling of APP and APP CTF in H4 cell membrane fractions and competition; assay type: binding; details: photoprobe 25 μM, competitor 200 μM
T1 construct: this protein was designated α-secretase-derived APP CTF (CTF83) on the basis of molecular weight; expressed in transfected cells
Procedure: Photoaffinity labelling. All experiments used the following general protocol. Samples (recombinant or synthetic peptides, cell lysates and membrane preparations) were exposed in borosilicate test tubes to ultraviolet light (350 nm) in a Rayonet Photoreactor R100 (RPR-3500 lamps, Southern New England Ultra Violet Company) in a cold room (4° C.) for 30 minutes or as otherwise noted. Crosslinked samples were analyzed by ELISA for biotin incorporation, or analyzed directly by SDS-PAGE (Criterion-XT, Bio-Rad), or after precipitation with streptavidin ultralink plus beads (Pierce). After immunblotting, proteins were detected using chemiluminesence (ECL Plus, GEHealthcare) or near-infrared fluorescence (LiCor Odyssey). Full-length APP and APP CTFs (CTF83, CTF99) were detected with CT20, a rabbit polyclonal antibody against the C-terminus of APP. Biotin was detected with an affinity-purified rabbit polyclonal antibody (Bethyl). Cell-based screens for amyloid-β modulation.

Aβ(1-42), sequence (P05067 672-713 limits assumed): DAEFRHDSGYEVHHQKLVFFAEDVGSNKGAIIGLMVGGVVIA
T1 sequence (P05067 688-770 limits assumed): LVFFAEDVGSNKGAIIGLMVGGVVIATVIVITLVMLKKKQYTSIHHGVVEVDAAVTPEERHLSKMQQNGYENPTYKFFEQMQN

Kd (Aβ(1-42)): 12.1 ± 4.7 µM
competition of APP-CTF labeling by Fen-B and Flurbi-BpB (APP-CTF): decreases labeling of APP-CTF
Structure (SMILES): O=C(O)c1cc(C=Cc2ccc(C=Cc3ccc(O)c(C(=O)O)c3)cc2)ccc1O [X-34, 1,4-bis(3-carboxy-4-hydroxyphenylethenyl)-benzene]
Aβ40 in the brains (Tg2576 mice; 100 mg kg21, Tg2576 mice, 4 h): no effects
decrease of soluble Aβ42 in the brains (Tg2576 mice; 100 mg kg21, Tg2576 mice, 4 h): 35%
selectivity of Aβ reduction (Aβ42 vs Aβ40) (Tg2576 mice; Tg2576, oral gavage, 4 hours): selective reductions of Aβ42
shorter amyloid-β (IP-MS) (H4 APPwt cells): increased amounts of shorter amyloid-β
Aβ33 levels (IP-MS) (H4 APPwt cells; 25 μM, 16 hours): raise Aβ33 levels more effectively than SS
levels of Aβ42 (IP-MS) (H4 APPwt cells; 25 μM, 16 hours): consistently decrease levels of Aβ42
